Experimental data taken from patent EP0067910B1, “Compounds and compositions for treatment of ocular hypertension” (priority 1981, dated 1982).
Structures can show the parent of a compound that is named as a salt.

Experiments:
conscious rabbits = assay: Ocular response (intraocular pressure, pupil diameter) to a single topical application to one eye of conscious rabbits; format: in vivo; conditions: for Intraocular Pressure (mm Hg) Mean Δ: control eye minus exp. eye; for Intraocular Pressure (mm Hg) Mean Δ / Pupil Diameter (mm) Mean Δ / Intraocular Pressure (mm Hg) Exp. Eye / Pupil Diameter (mm) Exp. Eye: mean of maximal responses; for Pupil Diameter (mm) Mean Δ: difference between pairs of eyes; for Intraocular Pressure (mm Hg) Exp. Eye / Pupil Diameter (mm) Exp. Eye: single topical application; for Intraocular Pressure (mm Hg) Mean Δ Control-Exp. / Intraocular Pressure (mm Hg) Treated Eye: single application; for intraocular pressure / pupillary dilation: in 0.9 percent (w/v) physiological saline, summary of Tables IIIA, IIIB, IV and V
Text: The effect of different concentrations of racemic a-methyl norepinephrine hydrochloride in 0.9 percent (w/v) physiological saline applied singly to one eye of conscious rabbits is summarized in Table I, below.
The reported pressure and pupillary responses are the means of the maximal responses based on the time courses of the responses in pairs of eyes of individual rabbits. The number in parentheses denotes the number of experimental subjects.
The mean time course of the ocular response to a 0.5 percent (w/v) solution of racemic a-methyl norepinephrine in 0.9 percent (w/v) physiological saline applied unilaterally to conscious rabbits is shown in Table II, below.
The drug was applied unilaterally (treated eye). In the third column is reported the mean pressure difference in pairs of eyes of individual rabbits. The number in parentheses denotes the number of experimental subjects.
Tables IIIA, IIIB, IV and V, below, summarize the experimental results using racemic a-methyl epinephrine, diester of a-methyl epinephrine, and diester of a-methyl norepinephrine in 0.9 percent (w/v) physiological saline.
The drug was applied unilaterally (Exp. Eye) at T = 0 hr. In the third column is reported the mean pressure difference between pairs of eyes of individual rabbits.

intraocular pressure = conditions: Annals of Ophthalmology, 3, No. 3, 282 (March 1971); cited from earlier work
[1] = tested on: normal healthy volunteers; assay: Tonometry, tonography and pupil diameter after one drop to one eye of human subjects; format: in vivo; conditions: for intraocular pressures of the treated eyes: one drop of 0.1 percent (w/v), seven subjects
Protocol: Tonometry and tonography studies were performed on normal healthy volunteers using an instrument denominated The Alcon pneumatonograph, available from Alcon Laboratories, Forth Worth, Texas. One drop of proparacaine (0.5 percent w/v) was applied to each eye prior to taking tonometric readings. The tonometer was calibrated by a manometric standard prior to initiation of these studies and checked on an air standardizer on each day of use. […] Pupil diameters were measured under normal laboratory light.
Each drug discussed hereinafter was dissolved in sterile physiological saline.
The reported values are the means of the maximal responses based on the time courses of the responses in pairs of eyes of individual subjects. The numbers in parentheses denote the number of experimental subjects. Po (mm Hg) is the intraocular pressure in seated subjects, C (µl min^-1 mm Hg^-1) is the outflow facility, and F (ul min^-1) is the rate of formation of the aqueous humor (subject supine).

Solubility in water = format: physicochemical
[2] = human, in vivo
Protocol: The blood pressure and the heart rate of all subjects given the dipivaloyl a-methyl epinephrine were measured prior to and after administration of the drop. No decrease in blood pressure or heart rate was observed.

[3] = 0.5 percent (w/v), six rabbits, time 0 hours
[4] = 0.5 percent (w/v), six rabbits, time 1 hour
[5] = 0.5 percent (w/v), six rabbits, time 3 hours
[6] = 0.5 percent (w/v), six rabbits, time 4 hours
[7] = tonographic studies on human subjects
[8] = 0.1 percent (w/v), normal subjects
[9] = 0.5 percent (w/v), normal subjects
[10] = 0.5 percent (w/v), two normal subjects
[11] = 0.5 percent (w/v) solution, eight rabbits, time 0 hours
[12] = 0.5 percent (w/v) solution, eight rabbits, time 0.5 hours
[13] = 0.5 percent (w/v) solution, eight rabbits, time 1.0 hours
[14] = 0.5 percent (w/v) solution, eight rabbits, time 3.0 hours
[15] = 0.5 percent (w/v) solution, eight rabbits, time 5.0 hours
[16] = 0.5 percent (w/v) solution, eight rabbits, time 24.0 hours

## CC(N)C(O)c1ccc(O)c(O)c1 (racemic) [α-Methyl Norepinephrine, a-methyl norepinephrine]
Conscious rabbits; 0.1 percent wt. by volume
  Intraocular Pressure (mm Hg) Mean Δ: 0.9 ± 0.3 (4) mm Hg
  Pupil Diameter (mm) Mean Δ: 0.9 ± 0.4 (4) mm
  Intraocular Pressure (mm Hg) Exp. Eye: 20.6 ± 1.3 mm Hg
  Pupil Diameter (mm) Exp. Eye: 4.6 ± 0.47 mm
Conscious rabbits; 0.3 percent wt. by volume
  Intraocular Pressure (mm Hg) Mean Δ: 4.5 ± 0.3 (4) mm Hg
  Pupil Diameter (mm) Mean Δ: 1.2 ± 0.63 (4) mm
  Intraocular Pressure (mm Hg) Exp. Eye: 16.5 ± 0.3 mm Hg
  Pupil Diameter (mm) Exp. Eye: 4.4 ± 0.9 mm
Conscious rabbits; [3]
  Intraocular Pressure (mm Hg) Mean Δ Control-Exp.: 0.3 ± 0.3 (6) mm Hg
  Intraocular Pressure (mm Hg) Treated Eye: 22.8 ± 1.4 (6) mm Hg
Conscious rabbits; [4]
  Intraocular Pressure (mm Hg) Mean Δ Control-Exp.: 2.8 ± 0.9 (6) mm Hg
  Intraocular Pressure (mm Hg) Treated Eye: 20.2 ± 1.6 (6) mm Hg
Conscious rabbits; [5]
  Intraocular Pressure (mm Hg) Mean Δ Control-Exp.: 7.2 ± 0.9 (6) mm Hg
  Intraocular Pressure (mm Hg) Treated Eye: 15.8 ± 1.3 (6) mm Hg
Conscious rabbits; [6]
  Intraocular Pressure (mm Hg) Mean Δ Control-Exp.: 6.3 ± 1.2 (6) mm Hg
  Intraocular Pressure (mm Hg) Treated Eye: 16.7 ± 1.2 (6) mm Hg
Conscious rabbits; 0.5 percent wt. by volume
  Intraocular Pressure (mm Hg) Mean Δ: 6.0 ± 0.3 (4) mm Hg
  Pupil Diameter (mm) Mean Δ: 0.9 ± 0.5 (4) mm
  Intraocular Pressure (mm Hg) Exp. Eye: 15.5 ± 0.8 mm Hg
  Pupil Diameter (mm) Exp. Eye: 3.9 ± 0.4 mm
Conscious rabbits; 0.8 percent wt. by volume
  Intraocular Pressure (mm Hg) Mean Δ: 6.8 ± 0.7 (6) mm Hg
  Pupil Diameter (mm) Mean Δ: 1.1 ± 0.30 (6) mm
  Intraocular Pressure (mm Hg) Exp. Eye: 15.7 ± 1.1 mm Hg
  Pupil Diameter (mm) Exp. Eye: 4.8 ± 0.42 mm
Conscious rabbits; 1.0 percent wt. by volume
  Intraocular Pressure (mm Hg) Mean Δ: 7.4 ± 0.7 (10) mm Hg
  Pupil Diameter (mm) Mean Δ: 3.4 ± 0.4 (10) mm
  Intraocular Pressure (mm Hg) Exp. Eye: 14.3 ± 0.6 mm Hg
  Pupil Diameter (mm) Exp. Eye: 7.2 ± 0.51 mm
Intraocular pressure
  lowering intraocular pressure: inactive

## CNC(C)C(O)c1ccc(OC(=O)C(C)(C)C)c(OC(=O)C(C)(C)C)c1 (centres unmarked) [4-(2-N-methylamino-1-hydroxypropyl)-1,2-dipivaloyloxybenzene hydrochloride]
[1]; 0.1 percent (w/v), normal subject
  pupillary response: almost complete lack of pupillary response
[1]; 24 hours
  intraocular pressures of the treated eyes: recovered
[1]; at 1 and 5 hours
  intraocular pressures of the treated eyes: significantly decreased
[1]; [7]
  outflow facility: increase
  rate of formation of the aqueous humor: reduction

## CC(N)C(O)c1ccc(OC(=O)C(C)(C)C)c(OC(=O)C(C)(C)C)c1 (centres unmarked) [Compound 5, 4-(2-amino-1-hyaroxypropyt)-1,2-dipivaioyioxybenzene hydrochloride]
Solubility in water
  solubility in water: freely soluble in water

## CNC(C)C(O)c1ccc(OC(=O)C(C)(C)C)c(OC(=O)C(C)(C)C)c1 (centres unmarked) [diester of a-methyl epinephrine]
Conscious rabbits
  intraocular pressure: reducing intraocular pressure
  pupillary dilation: lack of pupillary dilation

## CC(N)C(O)c1ccc(OC(=O)C(C)(C)C)c(OC(=O)C(C)(C)C)c1 (centres unmarked) [diester of a-methyl norepinephrine]
Conscious rabbits
  intraocular pressure: reducing intraocular pressure
  pupillary dilation: lack of pupillary dilation

## CNC(C)C(O)c1ccc(OC(=O)C(C)(C)C)c(OC(=O)C(C)(C)C)c1 (centres unmarked) [dipivaloyl a-methyl epinephrine]
[2]
  blood pressure: No decrease
  heart rate: No decrease
[1]; one drop of 0.05 percent (w/v), three normal human subjects, at 1 and 3 hours
  intraocular pressure of the treated eye: decreased

## CNCC(O)c1ccc(OC(=O)C(C)(C)C)c(OC(=O)C(C)(C)C)c1 (centres unmarked) [dipivaloyl epinephrine, reference compound]
[1]; [8]
  intraocular pressure response: no effect on intraocular pressure
[1]; [9]
  intraocular pressure response: significant decrease of intraocular pressure
  mydriasis: marked mydriasis
[1]; normal subjects, 1 hour after application
  intraocular pressure response at 1 hour: no significant pressure response

## CC(C)(C)NC[C@H](O)COc1nsnc1N1CCOCC1 [timolol maleate, reference compound]
[1]; [8]
  intraocular pressure response: no demonstrable pressure response
[1]; [9]
  intraocular pressure response: did give a pressure response
[1]; normal subjects, concentration not given
  pupillary response: lack of pupillary response
[1]; [7]
  outflow facility: no effect

## CNC(C)C(O)c1ccc(O)c(O)c1 (stereo not drawn) [α-methyl Epinephrine Hydrochloride, a-methyl epinephrine hydrochloride]
[1]; [10]
  intraocular pressure in the treated eyes: significant decrease
  mydriatic response: not associated with a mydriatic response
  time to development of the decrease of intraocular pressure: ≤ 1 h
Conscious rabbits; [11]
  Intraocular Pressure (mm Hg) Mean Δ Control-Exp.: −0.1 ± 0.2 mm Hg
  Intraocular Pressure (mm Hg) Treated Eye: 22.7 ± 0.6 mm Hg
Conscious rabbits; [12]
  Intraocular Pressure (mm Hg) Mean Δ Control-Exp.: 3.3 ± 0.8 mm Hg
  Intraocular Pressure (mm Hg) Treated Eye: 19.4 ± 1.3 mm Hg
Conscious rabbits; [13]
  Intraocular Pressure (mm Hg) Mean Δ Control-Exp.: 5.9 ± 0.6 mm Hg
  Intraocular Pressure (mm Hg) Treated Eye: 15.9 ± 1.2 mm Hg
Conscious rabbits; [14]
  Intraocular Pressure (mm Hg) Mean Δ Control-Exp.: 6.0 ± 0.8 mm Hg
  Intraocular Pressure (mm Hg) Treated Eye: 14.1 ± 0.5 mm Hg
Conscious rabbits; [15]
  Intraocular Pressure (mm Hg) Mean Δ Control-Exp.: 5.5 ± 0.7 mm Hg
  Intraocular Pressure (mm Hg) Treated Eye: 14.6 ± 0.6 mm Hg
Conscious rabbits; [16]
  Intraocular Pressure (mm Hg) Mean Δ Control-Exp.: 0.6 ± 0.1 mm Hg
  Intraocular Pressure (mm Hg) Treated Eye: 22.9 ± 0.9 mm Hg
Conscious rabbits
  intraocular pressure: reducing intraocular pressure
  pupillary dilation: lack of pupillary dilation
Intraocular pressure
  lowering intraocular pressure: inactive
